# Patent US12115156B2, “Compositions of CXCR4 inhibitors and methods of preparation and use” (X4 Pharmaceuticals, Inc., priority 2018, dated 2024)
# Columns and labels:
# [1] = Persistence of the imine impurity HPLC-MS peak in acidic aqueous media; type: physicochemical; details: X4P-001 solubilized in acidic aqueous media
# From the text: The imine impurity, I-1, and likely route of formation are shown in Scheme 1, below.
# [2] = Mutagenic Risk Assessment in accordance with ICH M7(R1); details: impurities in the synthetic process for X4P-001
# Procedure: The assessment included review of all raw materials, including key starting materials, as well as the potential and actual process impurities and degradation products. All assessments were carried out in accordance with ICH M7(R1) guidance.
# [3] = in vivo
# in vivo = details: terminal half-life
# [4] = system: advanced clear-cell renal cell carcinoma; details: cited from earlier work; for objective response rate: nivolumab 3 mg/kg intravenously every two weeks or everolimus 10 mg tablet orally daily, previously treated patients, P<0.001
# [5] = nivolumab compared to everolimus
molecule,measurement,setting,value
"C=NCCCCN(Cc1nc2ccccc2[nH]1)[C@H]1CCCc2cccnc21 [I-1, (S)-N-((1H-benzo[d]imidazol-2-yl)methyl)-N-(4-(methyleneamino)butyl)-5,6,7,8-tetrahydroquinolin-8-amine]",stability of the impurity peak (RRT 1.13),[1],disappears after a few hours
"ClCc1nc2ccccc2[nH]1 [I-8, 2-chloromethylbenzimidazole]",mutagenicity assessment,[2],potentially mutagenic
"CC(C)(C)OC(=O)n1c(CCl)nc2ccccc21 [I-9, boc-2-chloromethylbenzimidazole]",mutagenicity assessment,[2],potentially mutagenic
ICc1nc2ccccc2[nH]1 [I-10],mutagenicity assessment,[2],potentially mutagenic
CC(C)(C)OC(=O)n1c(CI)nc2ccccc21 [I-11],mutagenicity assessment,[2],potentially mutagenic
NCCCCN(Cc1nc2ccccc2[nH]1)[C@H]1CCCc2cccnc21 [X4P-001],terminal half-life,[3],approximately 14.5 hrs
same,half-life,in vivo,12 to 24 h
CO[C@H]1C[C@@H]2CC[C@@H](C)[C@@](O)(O2)C(=O)C(=O)N2CCCC[C@H]2C(=O)O[C@H]([C@H](C)C[C@@H]2CC[C@@H](OCCO)[C@H](OC)C2)CC(=O)[C@H](C)/C=C(\C)[C@@H](O)[C@@H](OC)C(=O)[C@H](C)C[C@H](C)/C=C/C=C/C=C/1C [everolimus],objective response rate,[4],5%
nivolumab: fully human IgG4 monoclonal antibody binding to the programmed cell death 1 (PD-1) receptor,objective response rate,[4],25%
same,hazard ratio for death,[4]; [5],decreased
same,incidence of Grade 3 or 4 treatment-related adverse events,[4]; [5],lower
same,median overall survival,[4]; [5],longer
